Test results from patent US4828849A, “Surfactant inhibition of dental plaque” (Warner-Lambert Company, priority 1988, dated 1989).
Structures can show the parent of a compound that is named as a salt.

Columns and labels:
[1] = tested on: Streptococcus sanguis G9B, S. mutans Ingbritt and Actinomyces viscosus T14 V; assay: Adherence assay: inhibition of initial adherence of bacteria to saliva-coated hydroxyapatite beads; format: cell-based; details: 50% inhibition of bacterial adherence to saliva-coated hydroxyapatite (HA) beads, determined graphically; surfactant dissolved in water; 37° C.; read-out: 50% Inhibition Concentration
Text: S. sanguis G9B adheres well to saliva-coated hydroxyapatite. This attachment, in vivo, occurs within minutes. As plaque matures, the percentage of S. sanguis decreases, but its actual numbers remain high. In vivo and in vitro studies have shown S. sanguis to interact with other oral bacteria including S. mutans and Actinomyces viscosus. S. mutans has also been implicated as a cause of dental caries. Stock cultures were kept both lyophillized and frozen in Brain Heart Infusion Broth (BHI, Difco Laboratories) at -70° C.; the latter being used to inoculate starter cultures. After overnight incubation at 37° C, a 0.5% inoculum was used to inoculate 100 ml of BHI which was subsequently incubated 20 hours at 37° C. The cells were radioactivately labeled by adding tritiated thymidine (methyl-3H) to a final specific activity of 2 μCi/ml. After incubation, the cells were harvested by centrifugation (16,320× g, 15 minutes, 4° C.), washed three times with buffered KCl (2 mM potassium phosphate buffer, 1 mM CaCl2, and 5 mM KCl, pH 6.0) (Ref. 8), and resuspended to a turbidity of 300 Klett units (Klett-Summerson colorimeter; blue, #47 filter). This bacterial stock cell suspension was then diluted with buffered KCl to produce a series of cell suspensions ranging from 1.6 to 300 Klett units. Duplicate 50 ul aliquots of each cell suspension were counted in Aquasol-2 to determine their specific activities.
A. viscosus T14 V was grown for 48 hours at 37° C. under anaerobic conditions in tryptic soy broth (TSB) containing glucose.
Whole, paraffin-stimulated saliva was collected into ice-chilled tubes and clarified by centrifugation ([…], 15 minutes, 4° C.). The supernatant fluids were removed and aliquots were stored frozen at -20° C. until used. A pool of saliva from several individuals was used routinely; and was collected after a 10 hour fast with no food or oral hygiene on the morning of collection.
Spheroidal hydroxyapatite beads (manufactured by BDH Chemicals, Poole, England and obtained from Gallard-Schlessinger Co., Carle Place, NY) were distributed into a 12×75 mm polystyrene test tube (Walter Sarstedt, Inc., Princeton, N.J.) and mixed with either 1 ml of saliva or buffered KCl for 1.5 hours at ambient temperature with rotation (20 rpm). Each tube contained 40±2 mg of HA beads, distributed using a calibrated stainless steel ladle.
The cells were radioactively labelled by addition of 1.5 μCi/ml methyl-^3 H thymidine to the cell suspension media. The hydroxyapatite (HA) beads were coated with either a surfactant or a control or saliva and rotated for 30 minutes at ambient temperature. The excess agent or saliva was removed by washing with buffer. Radioactively-labelled cells suspended in either buffer or varying concentrations of the surfactant were added to the beads. The beads and cells were incubated at 37° C., 10 minutes for the streptococcal strains and 15 minutes for the actinomycete, after which the beads were washed to remove the unbound cells and the radioactivity bound to them was determined by scintillation counting. S. mutans Ingbritt was also assayed for sucrose-mediated adherence by addition of 1% sucrose to the cells and surfactant mixture. The concentration to effect 50% inhibition of bacterial adherence to the HA beads was determined graphically.
Several surfactant agents according to the invention dissolved in water were employed in the assay.

glucosyl transferase = assay: Assay for the inhibition of glucosyl transferase activity (14C-sucrose incorporation into glucan); format: biochemical; details: 50% inhibition of glucosyl transferase activity; 0.05M sodium acetate buffer, pH 5.5, 37° C.; read-out: 50% Inhibition Concentration
Method: An assay for the inhibition of glucosyl transferase activity was developed wherein the enzyme was incubated for 10 minutes with varying concentrations of the surfactant in 0.05M sodium acetate buffer, pH 5.5 at 37° C., with agitation. The reaction was then started by adding the remainder of the assay mixture (to a final volume of 450 mcl) consisting of: 2.5 μCi uniformly-labelled 14C -sucrose, 1% unlabelled sucrose, sodium fluoride and Dextran T10 in acetate buffer. Samples were removed at timed intervals, spotted to filters and the filters were treated with methanol. Radioactivity incorporated into glucan was plotted versus time as compared to a control preparation. By this procedure the concentration of test reagent necessary to achieve 50% inhibition of glucosyl transferase activity was determined.

Molecule: CCCCCCCCCCCCCCCC(=O)N(C)CCS(=O)(=O)O [Surfactant 1, N--methyl-N--palmitoyltaurine, sodium salt]
- IC50 [1]: 250 µM
- IC50 (glucosyl transferase): 1000 µM

Molecule: CCCCCCCC/C=C\CCCCCCCC(=O)N(C)CCS(=O)(=O)O [Surfactant 2, N--methyl-N--oleolytaurine sodium salt]
- IC50 [1]: 350 µM
- IC50 (glucosyl transferase): 1000 µM

Molecule: Cocamidopropylhydroxysultaine [Surfactant 4]
- IC50 [1]: 15000 µM

Molecule: Cocamidopropylhydroxysultaine, potassium salt [Surfactant 5]
- IC50 [1]: 25000 µM

Molecule: Cocoylisethionate, sodium salt [Surfactant 6]
- IC50 [1]: 100 µM

Molecule: N--methyl-N--cocoyltaurine sodium salt [Surfactant 3]
- IC50 [1]: 300 µM
- IC50 (glucosyl transferase): 1000 µM
